“Also recorded” adds a separate entry of the source. Like-named read-outs stand apart in the source and are kept apart here. Bridge positions count the residues as written; N and C are the ends. Square brackets hold non-standard residues; d marks the D form. Ends that are not written are not given here. Peptide text beside a SMILES is read from it.
How the values were obtained:
QC [1] = biological target: T1, QC (Homo sapiens, UniProt Q16769); experiment: Continuous spectrophotometric assay of QC substrate conversion (glutamate dehydrogenase coupled), human QC;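 further: initial rates read in microplates at 30 °C, with enzyme activity quantified against an ammonia calibration curve recorded under the same assay conditions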
T1 sequence (Q16769 29-361): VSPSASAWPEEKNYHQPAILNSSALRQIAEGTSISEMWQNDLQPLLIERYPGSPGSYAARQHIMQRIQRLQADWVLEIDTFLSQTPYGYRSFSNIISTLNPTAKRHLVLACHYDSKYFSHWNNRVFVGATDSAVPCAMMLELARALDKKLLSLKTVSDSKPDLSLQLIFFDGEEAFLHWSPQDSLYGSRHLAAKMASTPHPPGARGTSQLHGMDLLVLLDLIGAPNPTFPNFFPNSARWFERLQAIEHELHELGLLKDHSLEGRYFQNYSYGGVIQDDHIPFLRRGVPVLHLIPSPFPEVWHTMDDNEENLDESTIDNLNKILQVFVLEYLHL
Procedure: The initial velocities were evaluated and the enzymatic activity was determined from a standard curve of ammonia under assay conditions. All samples were measured at 30° C., using either the [sequence]luor Plus or the Sunrise (both from TECAN) reader for microplates. Kinetic data was evaluated using GraFit software.

QC [2] = biological target: T1, QC; experiment: Qualitative substrate conversion by MALDI-TOF mass spectrometry, human QC; format: biochemical; design: The cDNA of the mature QC starting with codon 38 was fused in frame with the plasmid encoded 6×histidine tag; 6xHis; made in house; host or cells: Pichia pastoris X33 (pPICZαB); also E. coli M15 (pQE-31)
Procedure: Matrix-assisted laser desorption/ionization mass spectrometry was carried out using the Hewlett-Packard G2025 LD-TOF System with a linear time of flight analyzer. The instrument was equipped with a 337 nm nitrogen laser, a potential acceleration source (5 kV) and a 1.0 m flight tube. Detector operation was in the positive-ion mode and signals were recorded and filtered using LeCroy 9350M digital storage oscilloscope linked to a personal computer. Samples (5 μl) were mixed with equal volumes of the matrix solution. For matrix solution we used DHAP/DAHC, prepared by solving 30 mg 2′,6′-dihydroxyacetophenone (Aldrich) and 44 mg diammonium hydrogen citrate (Fluka) in 1 ml acetonitrile/0.1% TFA in water (1/1, v/v). […]
In order to further investigate the specificity and selectivity of the QCs, peptides were synthesized comprising either a modified N-terminal glutaminyl residue or a modified amino acid in the second position. […] Due to the cyclization of the glutaminyl residue or its analog, respectively, a mass difference of the substrate and the product of catalysis is detected. In cases of ammonia liberation of one mole per mole of substrate, the conversion was also analyzed quantitatively using the spectrophotometric assay.

QC [3] = biological target: T1, QC; experiment: Fluorometric assay with pyroglutamyl aminopeptidase as auxiliary enzyme, human QC; format: biochemical; design: The cDNA of the mature QC starting with codon 38 was fused in frame with the plasmid encoded 6×histidine tag; 6xHis; made in house; host or cells: Pichia pastoris X33 (pPICZαB); also E. coli M15 (pQE-31); conditions: H-Gln-AMC as substrate
From the text: Excitation/emission wavelengths were 320/410 nm.
(§1) Excitation/emission wavelengths were 380/460 nm.
H-Glu(OMe)-βNA and H-Glu-βNA.

mammalian QC = conditions: Busby et al. 1987; cited from earlier work
QC [4] = biological target: T1, QC; experiment: Inhibition and inactivation of human QC by chelators; format: biochemical; design: The cDNA of the mature QC starting with codon 38 was fused in frame with the plasmid encoded 6×histidine tag; 6xHis; made in house; host or cells: Pichia pastoris X33 (pPICZαB); also E. coli M15 (pQE-31); conditions: for inhibition of human QC catalyzed substrate cyclization: competitive and time-dependent for the chelators
[5] = biological target: T2, purified DP IV (porcine kidney) (Sus scrofa, UniProt P22411); experiment: Cleavage of [Gln^3]Aβ1-11a by DP IV, MALDI-TOF; format: biochemical
T2 construct: purified DP IV (porcine kidney); from tissue; host or cells: porcine kidney
T2 sequence (P22411 whole entry): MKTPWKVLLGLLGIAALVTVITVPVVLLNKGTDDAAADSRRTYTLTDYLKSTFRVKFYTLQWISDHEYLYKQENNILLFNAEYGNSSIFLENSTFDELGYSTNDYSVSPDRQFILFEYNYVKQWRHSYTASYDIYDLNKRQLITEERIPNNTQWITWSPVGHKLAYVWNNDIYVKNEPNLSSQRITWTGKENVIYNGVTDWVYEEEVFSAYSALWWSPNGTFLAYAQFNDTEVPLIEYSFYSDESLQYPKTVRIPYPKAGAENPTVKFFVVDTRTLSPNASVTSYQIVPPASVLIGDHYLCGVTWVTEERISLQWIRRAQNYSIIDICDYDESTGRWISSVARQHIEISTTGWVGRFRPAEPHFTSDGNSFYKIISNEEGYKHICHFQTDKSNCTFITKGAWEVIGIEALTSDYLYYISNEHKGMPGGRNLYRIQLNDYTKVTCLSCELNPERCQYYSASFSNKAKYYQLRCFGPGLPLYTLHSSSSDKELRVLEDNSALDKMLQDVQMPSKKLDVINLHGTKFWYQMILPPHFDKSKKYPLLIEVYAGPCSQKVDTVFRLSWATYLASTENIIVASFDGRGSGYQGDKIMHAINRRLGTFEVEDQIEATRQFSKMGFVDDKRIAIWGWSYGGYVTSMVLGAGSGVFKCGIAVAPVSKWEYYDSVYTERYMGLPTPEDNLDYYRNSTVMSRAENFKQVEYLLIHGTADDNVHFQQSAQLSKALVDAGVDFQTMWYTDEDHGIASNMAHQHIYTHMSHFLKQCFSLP
Procedure: (§2) Matrix-assisted laser desorption/ionization mass spectrometry was carried out using the Hewlett-Packard G2025 LD-TOF System with a linear time of flight analyzer. […] Samples (5 μl) were mixed with equal volumes of the matrix solution. For matrix solution we used DHAP/DAHC, prepared by solving 30 mg 2′,6′-dihydroxyacetophenone (Aldrich) and 44 mg diammonium hydrogen citrate (Fluka) in 1 ml acetonitrile/0.1% TFA in water (1/1, v/v). A small volume (=1 μl) of the matrix-analyte-mixture was transferred to a probe tip and immediately evaporated in a vacuum chamber (Hewlett-Packard G2024A sample prep accessory) to ensure rapid and homogeneous sample crystallization.

QC [6] = biological target: T1, QC; experiment: LC/MS-analysis of pyroglutamate formation by QC; format: biochemical
QC [7] = biological target: T1, QC; experiment: Long-term Glu^1-cyclization of Aβ-derived peptides by recombinant human QC, MALDI-TOF; format: biochemical; design: The cDNA of the mature QC starting with codon 38 was fused in frame with the plasmid encoded 6×histidine tag; 6xHis; made in house; host or cells: Pichia pastoris X33 (pPICZαB); also E. coli M15 (pQE-31); conditions: for suppression of [pGlu^3]Aβ3-11a / [pGlu^3]Aβ3-21a formation from Aβ3-11a / Aβ3-21a: 5 mM benzimidazole, pH 5.2 and 6.5; for turnover of glutamate-containing peptide by QC: pH 5.2 and 6.5, respectively
Procedure: For long-term testing of Glu^1-cyclization, Aβ-derived peptides were incubated in 100 μl 0.1 M sodium acetate buffer, pH 5.2 or 0.1 M Bis-Tris buffer, pH 6.5 at 30° C. Peptides were applied in 0.5 mM [Aβ3-11a] or 0.15 mM [Aβ3-21a] concentrations, and 0.2 U QC was added all 24 hours.
In case of Aβ3-21a, the assays contained 1% DMSO. At different times, samples were removed from the assay tube, peptides extracted using ZipTips (Millipore) according to the manufacturer's recommendations, mixed with matrix solution (1:1 v/v) and subsequently the mass spectra recorded. Negative controls did either contain no QC or heat deactivated enzyme.
The QC-catalyzed formation of [pGlu^3]Aβ3-11a and [pGlu^3]Aβ3-21a was investigated at pH 5.2 and 6.5, respectively. If the QC-inhibitor benzimidazole was added to the solution before starting the assay by addition of QC, substrate conversion resulting in [pGlu^3]Aβ3-11a or [pGlu^3]Aβ3-21a was suppressed (FIGS. 15E and F). If QC was boiled before addition, formation of the pGlu-peptides was negligible (FIGS. 15A and B).

QC [8] = biological target: T1, QC; experiment: Inhibitor assay: Ki determination in the human QC catalyzed reaction; format: biochemical; design: The cDNA of the mature QC starting with codon 38 was fused in frame with the plasmid encoded 6×histidine tag; 6xHis; made in house; host or cells: Pichia pastoris X33 (pPICZαB); also E. coli M15 (pQE-31); conditions: text of example 7
From the text: as §1

[9] = Procedure: H-Glu(OMe)-βNA and H-Glu-βNA. […] These fluorogenic substrates were analyzed fluorometrically, utilizing pyroglutamyl aminopeptidase as auxiliary enzyme.
DP IV and QC = experiment: Consecutive catalysis of DP IV and QC, crude porcine pituitary homogenate with added DPIV, MALDI-TOF; format: biochemical
Procedure: as §2

[10] = Table 1, physiological substrates
[11] = peptides comprising modified amino acids
[12] = Table 6, influence of substrate length

[Gln^1]-GnRH: GnRH with N-terminal glutamine: QHWSYGL RP(G) amide
kcat/KM (QC [1]; [10]): 1.3057e+06 ± 53200 M⁻¹ s⁻¹

CC(C)C[C@H](NC(=O)[C@H](CCCNC(=N)N)NC(=O)[C@H](CCCCNC(=O)[C@@H](N)CCC(N)=O)NC(=O)[C@@H](N)CCC(N)=O)C(=O)N[C@@H](C)C(N)=O [H-Gln-Lys(Gln)-Arg-Leu-Ala-NH2] (H-QK(Gln)RLA-NH2)
substrate conversion (cyclization) by human QC (QC [2]): converted

H-Gln-cyclo(Nε-Lys-Arg-Pro-Ala-Gly-Phe) (H-QKRPAGF; lactam 2-C; SMILES C[C@@H]1NC(=O)[C@@H]2CCCN2C(=O)[C@H](CCCNC(=N)N)NC(=O)[C@@H](NC(=O)[C@@H](N)CCC(N)=O)CCCCNC(=O)[C@H](Cc2ccccc2)NC(=O)CNC1=O)
kcat (turnover number) (QC [1]; [11]): 22.8 ± 10.6 s⁻¹ | kcat/KM-value (QC [1]; [11]): 95000 ± 3000 M⁻¹ s⁻¹

COC(=O)CC[C@H](N)C(=O)N[C@@H](Cc1ccccc1)C(=O)N[C@@H](CCCCN)C(=O)N[C@@H](CCCNC(=N)N)C(=O)N[C@@H](CC(C)C)C(=O)N[C@@H](C)C(N)=O [H-Glu(OMe)-Phe-Lys-Arg-Leu-Ala-NH2] (H-E(OMe)FKRLA-NH2)
inhibition of human QC by the peptide (QC [3]): not inhibited

O=C(O)CN(CCN(CC(=O)O)CC(=O)O)CC(=O)O [EDTA]
inhibition of a mammalian QC (mammalian QC): did not inhibit | inhibition of human QC catalyzed substrate cyclization (QC [4]): did not show remarkable inhibition

Cc1cc(=O)oc2cc(NC(=O)[C@@H](N)CCC(N)=O)ccc12 [H-Gln-AMC]
kcat/KM (QC [1]; Table 5, n.r. = not reactive): 98000 ± 2000 M⁻¹ s⁻¹

reduced 6-methylpterin
inhibition of a mammalian QC (mammalian QC): Inhibition

DAQFRHDSGYE-NH2 [[Gln^3]Aβ1-11a]
cleavage by DPIV under formation of [Gln^3]Aβ3-11a [5]: cleaving

C[C@H](NC(=O)[C@H](C)NC(=O)[C@@H](N)CCC(N)=O)C(N)=O [H-Gln-Ala-Ala-NH2] (H-Gln-Ala-Ala-NH2)
Km (QC [1]; [12]): 87 ± 3 µM

NC(=O)CC[C@H](N)C(=O)N[C@@H](CCC(=O)O)C(=O)N1CCC[C@H]1C(N)=O [[Gln^1]-FPP] (H-Gln-Glu-Pro-NH2)
Km (QC [1]; [10]): 87 ± 2 µM

NC(=O)CC[C@H](N)C(=O)O [H-Gln-OH]
kcat/KM (QC [1]; Table 5, n.r. = not reactive): n.r.

NC(=O)CC[C@H](N)C(=O)N[C@@H](Cc1c[nH]cn1)C(=O)N1CCC[C@H]1C(N)=O [[Gln^1]-TRH] (H-Gln-His-Pro-NH2)
Km (QC [1]; [10]): 90 ± 4 µM

[Gln^5]-substance P(5-11): substance P fragment 5-11 with N-terminal glutamine (QQFFGLM; ends and bridges not checked)
formation of N-terminal pyroglutamate by QC (QC [6]): transformed by QC

C[C@H](NC(=O)[C@@H](N)CCC(N)=O)C(N)=O [H-Gln-Ala-NH2] (H-Gln-Ala-NH2)
Km (QC [1]; [12]): 155 ± 9 µM

c1ccc2[nH]cnc2c1 [benzimidazole]
suppression of [pGlu^3]Aβ3-11a / [pGlu^3]Aβ3-21a formation from Aβ3-11a / Aβ3-21a (QC [7]): suppressed | suppression of [pGlu^3]Aβ3-11a / [pGlu^3]Aβ3-21a formation from Aβ3-11a / Aβ3-21a (QC [7]; listed as Benzimidazole): suppressing

Oc1cccc2cccnc12 [8-hydroxyquinoline]
inhibition of human QC catalyzed substrate cyclization (QC [4]): abolished

EFRHDSGYEVHHQKLVFFA-NH2 [Aβ3-21a]
turnover of glutamate-containing peptide by QC (QC [7]): serve as QC-substrates

Cn1cnc(CCN)c1 [1-methyl-4-(β-aminoethyl)-imidazole]
inhibition of human QC, in words (QC [8]): complete loss of inhibitory activity

H-EFKRLA-NH2 [H-Glu-Phe-Lys-Arg-Leu-Ala-NH2]
inhibition of human QC by the peptide (QC [3]): not inhibited

COC(=O)CC[C@H](N)C(=O)Nc1ccc2ccccc2c1 [H-Glu(OMe)-βNA, H-Glu(OMe)-β-naphthylamide]
stability in Tris and Tricine buffers [9]: remarkable instability

EFRHDSGYE-NH2 [Aβ3-11a]
turnover of glutamate-containing peptide by QC (QC [7]): serve as QC-substrates

H-Gln(NMe)-Phe-Lys-Ala-Glu-NH2 (H-[Gln(NMe)]FKAE-NH2; not fully specified; printed as H-Gln(NMe)-Phe-Lys-Ala-Glu-NH2)
substrate conversion (cyclization) by human QC (QC [2]): No substrate conversion | inhibition of human QC by the peptide (QC [3]): not detected

CC(C)[C@H](N)C(=O)N1CCCC1 [Val-Pyrr, Val-Pyrrolidide]
[pGlu^3]Aβ3-11a formation from [Gln^3]Aβ1-11a in presence of catalytically active DP IV and QC (DP IV and QC): not formed; also recorded: reduction | prevention of DP IV-catalysed cleavage of [Gln^3]Aβ1-11a [5]: completely prevented | prevention of DP IV-catalysed cleavage of [Gln^3]Aβ1-11a ([5]; listed as Val-Pyrrolidide): prevention

[Gln^3]-glucagon(3-29): glucagon fragment 3-29 with N-terminal glutamine
second order rate constant (QC [1]; in presence of 1% DMSO): 526000 M⁻¹ s⁻¹ | kcat/KM (QC [1]; recombinant human QC, buffer solution containing 1% DMSO): 526000 ± 17000 M⁻¹ s⁻¹ | formation of N-terminal pyroglutamate by QC (QC [6]): catalyzed by QC

O=C(O)c1cccc(C(=O)O)n1 [dipicolinic acid]
inhibition of human QC catalyzed substrate cyclization (QC [4]): abolished | inactivation of human QC after extensive dialysis (QC [4]; dialysis against 5 mM): almost completely inactivated

From US7381537B2, “Use of inhibitors of glutaminyl cyclases for treatment and prevention of disease” (Probiodrug AG, priority 2003, dated 2008)
